In paper PMC4861903, “Synthesis of a highly water-soluble acacetin prodrug for treating experimental atrial fibrillation in beagle dogs” (Scientific Reports, 2016):
Read-outs that look alike come from different tables or passages of the source.

Legend:
[1] = Aqueous solubility by HPLC in H2O, 5% glucose and 0.9% NaCl; assay type: physicochemical; settings: for solubility: 24 °C, room temperature (23–25 °C), n = 3, read-out: maximum solubility
QTc interval = assay: ECG QTc interval in anesthetized beagle dogs; assay type: in vivo; settings: for QTc interval after drug administration: at 35 min after administration, P = NS
Procedure: QTc (corrected QT) interval of ECG was analyzed in anesthetized beagle dogs before and at 35 min after drug administration. QTc interval was not altered (P = NS, before vs. after drug administration) in vehicle animals (n = 5, 273.6 ± 2.6 ms vs. 276.1 ± 4.2 ms) and animals treated with 3 mg/kg (n = 6, 279.5 ± 2.5 ms vs. 282.3 ± 1.7 ms), 6 mg/kg (n = 8, 276.9 ± 2.4 ms vs. 279.1 ± 2.3 ms), or 12 mg/kg (n = 7, 274.1 ± 3.5 ms vs. 278.7 ± 2.9 ms) acacetin prodrug. […]
China) were anesthetized with pentobarbital (40 mg/kg, i.v.), supplemented as necessary during the experiment. The animal was kept on an operation table maintained at 37°C, intubated and ventilated with room air. The left femoral vein was cannulated to maintain fluid balance, anesthesia, and test articles. Lead II electrocardiogram (ECG) was continuously monitored with using a digital recording system (RM6240, Chengdu Instruments, China)
An action potential (MAP) recording- and pacing-catheter (Boston Scientific Ltd) was introduced to the right atrium through right jugular vein, and an electrical pacing catheter was introduced to left ventricle via […] for ventricular pacing (when necessary).
Bilateral cervical vagal nerves were isolated and bipolar electrodes were placed to stimulate efferent vagal nerves with 15 Hz, 0.2 ms duration voltage step (80-100% threshold) to induce a 50% reduction of heart rate. Ventricular pacing was performed with 2-ms voltage pulses (2.5 Hz, 150% diastolic threshold) when vagal nerves were continuously stimulated. […]
Instruments, China). […]

Question: With COc1ccc(-c2cc(=O)c3c(O)cc(OP(=O)([O-])[O-])cc3o2)cc1.[Na+].[Na+] [acacetin prodrug, phosphate sodium salt of acacetin] as the compound, how does the solubility ([1]; saline or isotonic, in 0.9% NaCl) read?
Answer: The solubility was 88.6 ± 4.3 mg/mL.

Question: What about the solubility ([1]; saline or isotonic, in 5% glucose) of the same compound?
Answer: Its solubility is 91.4 ± 2.7 mg/mL.

Question: And the solubility ([1]; water, in H2O)?
Answer: Its solubility is 126 ± 2.5 mg/mL.

Question: What about the “solubility higher compared to parent compound acacetin” value ([1]; in 5% glucose or 0.9% NaCl) of the same compound?
Answer: The value was “more than forty five thousand folds higher”.

Question: And the “solubility higher compared to parent compound acacetin” value ([1]; in H2O)?
Answer: Its value is “more than 1.9 million folds”.

Question: What about the “QTc interval after drug administration” value (QTc interval; 3 mg/kg i.v., n = 6, before 279.5 ± 2.5 ms) of the same compound?
Answer: Its value is 282.3 ± 1.7 ms.

Question: And the “QTc interval after drug administration” value (QTc interval; 6 mg/kg i.v., n = 8, before 276.9 ± 2.4 ms)?
Answer: Its value is 279.1 ± 2.3 ms.

Question: What about the “QTc interval after drug administration” value (QTc interval; 12 mg/kg i.v., n = 7, before 274.1 ± 3.5 ms) of the same compound?
Answer: The value was 278.7 ± 2.9 ms.

Question: And the “effect on QT interval” value (QTc interval; 3, 6 and 12 mg/kg i.v., beagle dogs)?
Answer: The value was “no effect”.
